# Assay results taken from patent publication US6235516A, “Biocatalysts with amine acylase activity” (Novartis AG, priority 1996, dated 2001).
# Values joined by “and” are separate entries in the source; they are usually repeats but may differ in a detail not shown here. Equal entries are not always repeated.
# Columns and labels:
# [1] = test system: Strain K1/1; assay: Growth and induction of the acylase of Rhodococcus globerulus K1/1, variation of the inducer; assay type: cell-based; conditions: for induction of acylase formation by strain K1/1: racemic inducer, 0-9.84 mM
# Method: Strain K1/1 is grown in shake flask culture using the medium from example 21, but with 2 g/l of each yeast extract and peptone, with racemic 2-acetylamino-1-phenyl-4-pentene or alternatively racemic N-acetyl-1-phenylethylamine as the inducer in concentrations of 0, 4.92, 7.38, and 9.84 mM.
# [2] = test system: K1/1 acylase; assay: Hydrolysis of racemic 2-acetylamino-1-phenyl-4-pentene with the purified K1/1 acylase; assay type: biochemical, Rhodococcus globerulus K1/1
# Method: To 50 ml of a 10 mM solution of racemic 2-acetylamino-1-phenyl-4-pentene in phosphate buffer (pH 7.0) 7 ml of the K1/1 acylase are added (0.456 U), which has been purified by HIC and concentrated by ultrafiltration (example 26.5 and 26.6). The deacylation is performed at 30° C. under continuous shaking at 200 rpm. The reaction is monitored by HPLC (see example 1), and after the conversion is about 50% the solution is acidified to pH 2 with 1 N HCl and extracted three times with one volume of dichloromethane to obtain the unconverted amides. The aqueous phase is neutralized with 1 N NaOH and extracted again three times with dichloromethane to recover the formed amines. Both organic phases are dried with MgSO4, filtered and the solvent is distilled off. The amides are used directly for optical purity determinations via HPLC under the following conditions: Chiralcel OJ column, hexane/isopropanol 9:1 as the eluent, flow rate 1 ml/min., detection at 208 nm. The obtained amines are converted to the acetamides by adding […] to each sample before being also analyzed for the optical purity by HPLC.
# [3] = target: T1, acylase from Rhodococcus equi Ac6 (Rhodococcus (subgen. Prescottella) equi, UniProt A0A3S5Y3Z2); assay: Enzymatic hydrolysis of racemic amides with partially purified acylase from Rhodococcus equi Ac6; assay type: biochemical; design: e.e. (R)-Amide: unit not given here; conditions: for Selectivity E: enantioselectivity of the hydrolysis; for e.e. (S)-Amine: formed amine, analysed as acetamide; for e.e. (R)-Amide: unconverted amide, chiral HPLC
# T1 construct: N-terminus […]
# Method: (§1) To 10 ml of a 20 mM solution of each of the racemic amides shown below 1 in 0.1 M phosphate buffer pH 7.0, 5 ml (1.3 units) of the enzyme is added and the solutions are shaken at 100 rpm and 30° C. [drawing 10] [drawing 11]
# (§2) When the conversion reaches about 50% (checked by HPLC) the solutions are acidified to pH 2 by adding 1 N HCl and extracted three times with dichloromethane to obtain the unconverted amides. The aqueous layers are neutralized with 1 N NaOH solution and extracted again three times with dichloromethane to recover the formed amines. Both organic phases are dried with MgSO4, filtered and the solvent is distilled off. The amides are used directly for optical purity determinations (HPLC), whereas the obtained amines are converted to the acetamides by adding 100 μl triethylamine and 100 μl acetic anhydride to each sample and then analyzed for the optical purity by "chiral" HPLC.
# The experiments are carried out in the same manner as described in example 22.
# [4] = test system: whole cells of Rhodococcus globerulus K1/1; assay: Amide hydrolysis with whole cells of Rhodococcus globerulus K1/1; assay type: cell-based; conditions: for Selectivity E: enantioselectivity of the hydrolysis; for e.e. (S)-Amine: formed amine, analysed as acetamide; for e.e. (R)-Amide: unconverted amide, chiral HPLC
# Excerpt: as §2
# To 50 ml of a 10 mM solution in phosphate buffer pH 7.0 of each racemic amide listed in table 16, whole cells of Rhodococcus globerulus K1/1 (each obtained from 50 ml shake flask medium (see example 21), OD660 =2.0) is added. The deacetylation is performed at 30° C. under continuous shaking (200 rpm). The reaction is monitored by HPLC and after the conversion is about 50% the reaction mixtures are worked up in the same manner as described in example 22.
# [5] = test system: acylase from Arthrobacter aurescens Ac5R; assay: Enzymatic hydrolysis of racemic amides with highly purified acylase from Arthrobacter aurescens Ac5R; assay type: biochemical; conditions: for Selectivity E: enantioselectivity of the hydrolysis; for e.e. (R)-Amine: formed amine, analysed as acetamide by chiral HPLC; for e.e. (S)-Amide: unconverted amide, chiral HPLC
# Method: as §1, §2
# [6] = test system: AcR5b-acylase; assay: Dependence of the reaction velocity of the AcR5b-acylase on substrate concentration (Km, Vmax); assay type: biochemical, Arthrobacter aurescens AcR5b; conditions: for Km: 30 min incubation, pH 7; for relative maximum reaction velocity: (R)-N-acetyl-1-phenylethylamine = 100
# Method: Activity assays are performed under the standard conditions given in example 11 with an incubation time of 30 min. using different initial concentrations of (R)-N-acetyl-1-phenylethylamine and racemic N-acetyl-(m-cyano-phenyl)ethylamine. The final AcR5b-acylase preparation obtained in example 4d, which has been diluted 20 fold with 69 mM potassium phosphate buffer, pH 7, serve as the enzyme source. The Michaelis constants (Km) and the maximum reaction velocities are calculated as described in example 9.
# [7] = test system: AcR5b-acylase; assay: Stability of the AcR5b-acylase during freezing, with and without cryoprotective agents; assay type: physicochemical, Arthrobacter aurescens AcR5b
# [8] = test system: whole cells of Rhodococcus globerulus K1/1; assay: Hydrolysis of racemic 2-acetylamino-1(4-chlorophenyl)-4-pentene with whole cells of Rhodococcus globerulus K1/1; assay type: cell-based; conditions: 80 g racemic amide in 20 l, 21 h at 28° C.
# Method: Strain K1/1 is grown according to example 3 in a 30 l fermenter filled with 20 l of basic medium containing 1 g/l of racemic N-acetyl-1-phenylethylamine. The cells are harvested by continuous centrifugation and resuspended in the reaction mixture, which is prepared by adding a solution of 80 g racemic 2-acetylamino-1(4-chlorophenyl)-4-pentene in 500 ml methanol to 20 l of potassium phosphate buffer, 69 mM, pH 7. After stirring for 21 h at 28° C. and 500 rpm the amine formed and the unreacted amide are separated and analyzed for their optical purity analogously to the procedure given in example 30.
# [9] = test system: R. equi Ac6; assay: Growth and induction of the acylase of Rhodococcus equi Ac6 (shake flask culture); assay type: cell-based; conditions: for induction of the acylase expression of strain Ac6: 3 g/l in basic medium; for Enzyme yield with (R)-amide as the acylase substrate / Enzyme yield with (S)-amide as the acylase substrate: basic medium + 3 g/l of the amide as inducer; for Enzyme yield with (R)-amide as the acylase substrate / Enzyme yield with (S)-amide as the acylase substrate / OD660 at cell harvest: 91 h; for OD660 at cell harvest: basic medium + 3 g/l of the amide, basic medium alone 0.46; for effect on growth of Rhodococcus equi Ac6: in the growth medium
# Method: R. equi Ac6 is grown in basic medium containing 3 g/l (S)-N-acetyl-1-phenylethylamine or 3 g/l (R)-N-acetyl-1-phenylethylamine or no N-acetyl-1-phenylethylamine for 91 h by the shake flask culture technique described in example 1. By applying the methods given in example 1 the crude extracts are prepared and subjected to measurement of the protein concentration and the acylase activity using (S)-N-acetyl-1-phenylethylamine and (R)-N-acetyl-1-phenylethylamine as the substrates.
# R. equi Ac6 cells are inoculated into three 1 l Erlenmeyer flask containing each 100 ml of basic medium with 10 g/l yeast extract and 10 g/l meat extract as additional nutrients. The cells are grown (shake flask technique see example 1) until the OD660 reaches about 2. Then the culture is split into eight portions of 25 ml and (S)-N-acetyl-1-phenylethylamine is added to the shake flasks in final concentrations of 0-7 g/l in steps of 1 g/l. The cells are further incubated for 25 h. Then the protein concentrations and acylase activities of the crude extracts are measured as described in example 1.
# In another experiment (S)-N-acetyl-1-phenylethylamine is added to the culture medium in final concentrations of 1 to 5 g/l in steps of 1 g/l directly after inoculation to one series of shake flasks (see example 1) and after 72 h of growth to another. Basic medium without peptone supplemented with 20 g/l meat extract and 20 g/l yeast extract is used. 96 h after inoculation the cells are harvested by centrifugation and the protein concentration and acylase activity in the crude extract are measured (see example 1).
# [10] = test system: CC(=O)N[C@@H](C)c1ccccc1; assay: Dependence of the reaction velocity of the Ac6-acylase on substrate concentration (Km); assay type: biochemical, Rhodococcus equi Ac6; conditions: other: purified Ac6-acylase, pH 7, 30° C., 10 min, nonlinear regression
# Method: Activity assay under the standard conditions given in example 1 with an incubation time of 10 min. are performed using different initial concentrations of (S)-N-acetyl-1-phenylethylamine and the final Ac6-acylase preparation obtained in example 4c, which has been diluted 5 fold with 69 mM potassium phosphate buffer, pH 7, as the enzyme source. The Michaelis constant Km is calculated from the substrate concentrations and the corresponding reaction velocities by numerical nonlinear regression with the program "SigmaPlot for Windows" (Jandel Scientific GmbH, Schimmelbusch, Germany) to the formula: v=Vm×S/(S+Km). v: reaction velocity (U/ml=mM/min.), Vm : maximum reaction velocity (U/ml), S=(S)-N-acetyl-1-phenylethylamine concentration (mM).
# [11] = AcR5b-acylase frozen 2.5 h at -20° C. with the cryoprotective agent of the label (label AcR5b-acylase = none)
# [12] = AcR5b-acylase frozen 2.5 h at -80° C. with the cryoprotective agent of the label (label AcR5b-acylase = none)
# [13] = AcR5b-acylase frozen 9 days at -20° C. with the cryoprotective agent of the label (label AcR5b-acylase = none)
# [14] = AcR5b-acylase frozen 9 days at -80° C. with the cryoprotective agent of the label (label AcR5b-acylase = none)
# T1 sequence (A0A3S5Y3Z2 1-487): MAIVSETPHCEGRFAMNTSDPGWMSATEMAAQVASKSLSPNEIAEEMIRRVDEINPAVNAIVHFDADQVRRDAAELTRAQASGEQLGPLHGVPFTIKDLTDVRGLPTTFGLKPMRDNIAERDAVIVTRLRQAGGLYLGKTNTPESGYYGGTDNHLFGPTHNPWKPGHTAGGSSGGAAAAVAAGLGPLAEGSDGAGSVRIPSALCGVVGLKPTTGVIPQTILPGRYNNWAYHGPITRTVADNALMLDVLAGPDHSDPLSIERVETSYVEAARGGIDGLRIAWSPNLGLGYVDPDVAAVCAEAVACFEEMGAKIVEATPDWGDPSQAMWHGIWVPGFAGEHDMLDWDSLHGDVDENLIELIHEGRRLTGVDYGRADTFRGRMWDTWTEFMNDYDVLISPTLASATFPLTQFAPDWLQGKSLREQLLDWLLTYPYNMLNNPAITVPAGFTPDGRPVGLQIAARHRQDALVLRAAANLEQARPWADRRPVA
compound,measurement,setting,value
C=CCC(Cc1ccccc1)NC(C)=O (racemic) [2-acetylamino-1-phenyl-4-pentene],induction of acylase formation by strain K1/1,[1],inducing substance
same,conversion,"[2]; 10 mM racemic substrate, 0.456 U K1/1 acylase, pH 7.0, 30° C.",50.3%
same,E-value,[2]; at 50.3% conversion,74.9
"CC(=O)NC(C)c1ccccc1 (racemic) [Substrate 1a, N-acetyl 1-phenylethylamine]",effect on growth of strain K1/1,[1]; 7.38 and 9.84 mM,do not inhibit the growth
same,induction of acylase formation by strain K1/1,[1],inducing substance
same,Selectivity E,[3],350
same,e.e. (S)-Amine,[3],96.8
same,e.e. (R)-Amide,[3],99.3
same,Selectivity E,[4],> 500
same,e.e. (S)-Amine,[4],97.5
same,e.e. (R)-Amide,[4],> 99.9
same,Selectivity E,[5],> 500
same,e.e. (R)-Amine,[5],98.2
same,e.e. (S)-Amide,[5],> 99.9
CCC(NC(C)=O)c1ccccc1 (racemic) [Substrate 4a],Selectivity E,[3],> 500
same,e.e. (S)-Amine,[3],98.5
same,e.e. (R)-Amide,[3],> 99.9
same,Selectivity E,[4],140
same,e.e. (S)-Amine,[4],90.0
same,e.e. (R)-Amide,[4],> 99.9
same,Selectivity E,[5],> 500
same,e.e. (R)-Amine,[5],> 99.9
same,e.e. (S)-Amide,[5],87.4
CC(=O)NC1CCOc2ccccc21 (racemic) [Substrate 6a],Selectivity E,[4],290
same,e.e. (S)-Amine,[4],93.5
same,e.e. (R)-Amide,[4],> 99.9
same,Selectivity E,[5],32
same,e.e. (R)-Amine,[5],90.5
same,e.e. (S)-Amide,[5],46.6
C=CCC(Cc1ccccc1)NC(C)=O (racemic) [Substrate 10a],Selectivity E,[4],70
same,e.e. (S)-Amine,[4],90.0
same,e.e. (R)-Amide,[4],95.7
CCCC(Cc1ccccc1)NC(C)=O (racemic) [Substrate 11a],Selectivity E,[4],35
same,e.e. (S)-Amine,[4],77.8
same,e.e. (R)-Amide,[4],97.8
CCC(Cc1ccccc1)NC(C)=O (racemic) [Substrate 12a],Selectivity E,[4],87
same,e.e. (S)-Amine,[4],93.0 and 87.9
same,e.e. (R)-Amide,[4],90.7 and > 99.9
"CC(=O)NC(C)c1cccc(C#N)c1 (racemic) [racemic (m-cyano) derivative, N-acetyl-(m-cyano-phenyl)ethylamine]",Km,[6],10.4 mM
same,relative maximum reaction velocity,[6],23%
"OCC(O)CO [5% Glycerol, Glycerol]",Relative activity (%),[7]; [11],100%
same,Relative activity (%),[7]; [12],100%
same,Relative activity (%),[7]; [13],89%
same,Relative activity (%),[7]; [14],97%
"N.N.O=S(=O)(O)O [10% (NH4)2 SO4, (NH4)2 SO4]",Relative activity (%),[7]; [11],100%
same,Relative activity (%),[7]; [12],92%
same,Relative activity (%),[7]; [13],81%
same,Relative activity (%),[7]; [14],83%
"OC[C@H]1O[C@@](CO)(O[C@H]2O[C@H](CO)[C@@H](O)[C@H](O)[C@H]2O)[C@@H](O)[C@@H]1O [10% Saccharose, Saccharose]",Relative activity (%),[7]; [11],100%
same,Relative activity (%),[7]; [12],100%
same,Relative activity (%),[7]; [13],100%
same,Relative activity (%),[7]; [14],92%
"OCC(O)CO [50% Glycerol, Glycerol]",Relative activity (%),[7]; [11],77%
same,Relative activity (%),[7]; [12],100%
same,Relative activity (%),[7]; [13],98%
same,Relative activity (%),[7]; [14],90%
C=CC[C@H](Cc1ccc(Cl)cc1)NC(C)=O [(R)-2-acetylamino-1(4-chlorophenyl)-4-pentene],ee of the unreacted amide,[8],98.5 % ee
C=CC[C@H](Cc1ccccc1)NC(C)=O [(R)-N-2-acetylamino-1-phenyl-4-pentene],ee of the unconverted amide,[2]; at 50.3% conversion,98.8 % ee
CC(=O)N[C@H](C)c1ccccc1 [(R)-N-acetyl-1-phenylethylamine],induction of the acylase expression of strain Ac6,[9],not effective as an inducer
same,Enzyme yield with (R)-amide as the acylase substrate,[9],0 U/lculture broth
same,Enzyme yield with (S)-amide as the acylase substrate,[9],0 U/lculture broth
same,OD660 at cell harvest,[9],0.19
same,effect on growth of Rhodococcus equi Ac6,[9],inhibits the growth of the bacterium
same,Km,[6],5.7 mM
same,relative maximum reaction velocity,[6],100%
C=CC[C@H](N)Cc1ccc(Cl)cc1 [(S)-2-amino-1(4-chlorophenyl)-4-pentene],ee of the formed amine,[8],> 99.9 % ee
C=CC[C@H](N)Cc1ccccc1 [(S)-2-amino-1-phenyl-4-pentene],ee of the formed amine,[2]; at 50.3% conversion,87.4 % ee
CC(=O)N[C@@H](C)c1ccccc1 [(S)-N-acetyl-1-phenylethylamine],maximal acylase production,"[9]; 2 g/l inducer added 72 h after inoculation, harvest 96 h",20 U/lculture medium
same,induction of the acylase expression of strain Ac6,[9],has to be present in the growth medium to induce the acylase expression
same,maximal acylase yield,"[9]; 3 g/l inducer added directly after inoculation, harvest 96 h",60 U/lculture medium
same,Enzyme yield with (R)-amide as the acylase substrate,[9],< 0.4 U/lculture broth
same,Enzyme yield with (S)-amide as the acylase substrate,[9],38.2 U/lculture broth
same,OD660 at cell harvest,[9],1.52
same,effect on growth of Rhodococcus equi Ac6,[9],inhibits the growth of the cells
Ac6-acylase (Rhodococcus equi 103S),Km,[10],0.6 mM
